Experimental data: paper PMC10257182, “Discovery of senolytics using machine learning” (Nature Communications, 2023)
Values joined by “and” are separate entries in the source; they are usually repeats but may differ in a detail not shown here. Equal entries are not always repeated. Where two headings read alike, the source gives them in different places.

Legend:
Type in all cases: cell-based, human
[1] = tested on: senescent A549 cells (etoposide-induced); test: Nuclei count senolytic assay, therapy-induced senescence (TIS) model, senescent cells; details: for % Cell Survival: senescence cells, single replicate
Method in brief: (§1)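 Read-out is the imaged count of Hoechst 33342-stained nuclei (2 μg/ml final) in fixed, permeabilised A549 cells. Senescent cells had received etoposide at 100 μM for 48 h plus three days recovery in normal media. Compound exposure lasted 72 h across a 10-point […] range, 10 μM to 10 nM.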

[2] = tested on: non-senescent control A549 cells; test: Nuclei count senolytic assay, TIS model, non-senescent control cells; details: for % Cell Survival: control cells, single replicate
Method in brief: as §1

[3] = tested on: non-senescent control IMR90 ER:RAS cells; test: Nuclei count (Hoechst, high content imaging) senolytic assay, OIS model, non-senescent control cells; details: Homo sapiens
Method in brief: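 Readout is automated image-based counting of Hoechst-stained nuclei per well, with loss of cells relative to untreated wells taken as cell death. Senescent (4-OHT, 100 nM) and control IMR90 ER:RAS cells were exposed to compounds for 72 h at 10 nM to 10 μM final.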

Molecule `CO[C@H]1C[C@H](O[C@H]2CC[C@@]3(C)[C@H](CC[C@@H]4[C@@H]3CC[C@]3(C)[C@@H](C5=CC(=O)OC5)[C@@H](OC(C)=O)C[C@]43O)C2)O[C@@H](C)[C@@H]1O` [Oleandrin, oleandrin] has a viability at 10 µM ([1]; Homo sapiens, A549, log (dose) [M] -5, Senescent cells, mean, read-out: Mean % Cell Survival) of 0.749%, a viability at 4.68 µM ([1]; Homo sapiens, A549, log (dose) [M] -5.33, Senescent cells, mean, read-out: Mean % Cell Survival) of 1.57% and a viability at 2.19 µM ([1]; Homo sapiens, A549, log (dose) [M] -5.66, Senescent cells, mean, read-out: Mean % Cell Survival) of 1.08%. It also gave a viability at 1 µM ([1]; Homo sapiens, A549, log (dose) [M] -6, Senescent cells, mean, read-out: Mean % Cell Survival) of 1.7%, a viability at 0.468 µM ([1]; Homo sapiens, A549, log (dose) [M] -6.33, Senescent cells, mean, read-out: Mean % Cell Survival) of 1.38% and a viability at 0.219 µM ([1]; Homo sapiens, A549, log (dose) [M] -6.66, Senescent cells, mean, read-out: Mean % Cell Survival) of 2.19%. For the same molecule, the viability at 0.1 µM ([1]; Homo sapiens, A549, log (dose) [M] -7, Senescent cells, mean, read-out: Mean % Cell Survival) was 3.51%, the viability at 0.0468 µM ([1]; Homo sapiens, A549, log (dose) [M] -7.33, Senescent cells, mean, read-out: Mean % Cell Survival) was 9.16% and the viability at 0.0219 µM ([1]; Homo sapiens, A549, log (dose) [M] -7.66, Senescent cells, mean, read-out: Mean % Cell Survival) was 3.39%. For the same molecule, the viability at 0.01 µM ([1]; Homo sapiens, A549, log (dose) [M] -8, Senescent cells, mean, read-out: Mean % Cell Survival) was 26.8%, the IC50 ([1]; Homo sapiens, TIS model, etoposide-induced senescent A549, nuclei count, 72 h) was 5.4 nM and the “concentration at which a senolytic effect was reached” value ([1]; TIS A549, Hoechst labelling, marginal effect on normal cells) was 10 nM. For the same molecule, the “senolytic action (in words)” value ([1]; experimental screen, TIS senescent A549) was “strong senolytic action”, the “% Cell Survival” value ([1]; log (dose) [M] -5) was 1.111% and 0.1906% and 0.9453% and the “% Cell Survival” value ([1]; log (dose) [M] -5.33) was 1.898% and 1.858% and 0.9453%. The “% Cell Survival” value ([1]; log (dose) [M] -5.66) was 1.065% and 1.477% and 0.6965%, the “% Cell Survival” value ([1]; log (dose) [M] -6) was 2.222% and 1.477% and 1.393% and the “% Cell Survival” value ([1]; log (dose) [M] -6.33) was 1.806% and 1.286% and 1.045%. For the same molecule, the “% Cell Survival” value ([1]; log (dose) [M] -6.66) was 2.083% and 3.383% and 1.095%, the “% Cell Survival” value ([1]; log (dose) [M] -7) was 3.194% and 5.908% and 1.443% and the “% Cell Survival” value ([1]; log (dose) [M] -7.33) was 3.7037% and 20.1525% and 3.632%. The “% Cell Survival” value ([1]; log (dose) [M] -7.66) was 6.2037% and 0.09528% and 3.8806%, the “% Cell Survival” value ([1]; log (dose) [M] -8) was 34.3519% and 21.3435% and 24.6766% and the viability at 10 µM ([2]; Homo sapiens, A549, log (dose) [M] -5, Control cells, mean, read-out: Mean % Cell Survival) was 1.02%. It also gave a viability at 4.68 µM ([2]; Homo sapiens, A549, log (dose) [M] -5.33, Control cells, mean, read-out: Mean % Cell Survival) of 1.71%, a viability at 2.19 µM ([2]; Homo sapiens, A549, log (dose) [M] -5.66, Control cells, mean, read-out: Mean % Cell Survival) of 1.34% and a viability at 1 µM ([2]; Homo sapiens, A549, log (dose) [M] -6, Control cells, mean, read-out: Mean % Cell Survival) of 1.19%. For the same molecule, the viability at 0.468 µM ([2]; Homo sapiens, A549, log (dose) [M] -6.33, Control cells, mean, read-out: Mean % Cell Survival) was 1.55%, the viability at 0.219 µM ([2]; Homo sapiens, A549, log (dose) [M] -6.66, Control cells, mean, read-out: Mean % Cell Survival) was 2.98% and the viability at 0.1 µM ([2]; Homo sapiens, A549, log (dose) [M] -7, Control cells, mean, read-out: Mean % Cell Survival) was 6.37%. The viability at 0.0468 µM ([2]; Homo sapiens, A549, log (dose) [M] -7.33, Control cells, mean, read-out: Mean % Cell Survival) was 4.07%, the viability at 0.0219 µM ([2]; Homo sapiens, A549, log (dose) [M] -7.66, Control cells, mean, read-out: Mean % Cell Survival) was 25.8% and the viability at 0.01 µM ([2]; Homo sapiens, A549, log (dose) [M] -8, Control cells, mean, read-out: Mean % Cell Survival) was 34.2%. The IC50 ([2]; Homo sapiens, TIS model, non-senescent A549, nuclei count, 72 h) was 19.5 nM, the “% Cell Survival” value ([2]; log (dose) [M] -5) was 0.2886% and 2.786% and 0% and the “% Cell Survival” value ([2]; log (dose) [M] -5.33) was 1.948% and 1.5% and 1.695%. For the same molecule, the “% Cell Survival” value ([2]; log (dose) [M] -5.66) was 1.659% and 1.071% and 1.304%, the “% Cell Survival” value ([2]; log (dose) [M] -6) was 0% and 2.071% and 1.499% and the “% Cell Survival” value ([2]; log (dose) [M] -6.33) was 1.371% and 2.429% and 0.8475%. The “% Cell Survival” value ([2]; log (dose) [M] -6.66) was 4.113% and 2.929% and 1.89%, the “% Cell Survival” value ([2]; log (dose) [M] -7) was 5.267% and 9.857% and 3.977% and the “% Cell Survival” value ([2]; log (dose) [M] -7.33) was 0% and 0.07143% and 12.1252%. For the same molecule, the “% Cell Survival” value ([2]; log (dose) [M] -7.66) was 49.3506% and 28.0313%, the “% Cell Survival” value ([2]; log (dose) [M] -8) was 102.742% and the viability at 10 µM ([3]; IMR-90, 72 h, Control, log (dose) [M] -5, 72 h, mean n=3 (Fig 3C), read-out: Mean % Cell Survival) was 15%. The viability at 4.677 µM ([3]; IMR-90, 72 h, Control, log (dose) [M] -5.33, 72 h, mean n=3 (Fig 3C), read-out: Mean % Cell Survival) was 20%, the viability at 2.188 µM ([3]; IMR-90, 72 h, Control, log (dose) [M] -5.66, 72 h, mean n=3 (Fig 3C), read-out: Mean % Cell Survival) was 20.5% and the viability at 1 µM ([3]; IMR-90, 72 h, Control, log (dose) [M] -6, 72 h, mean n=3 (Fig 3C), read-out: Mean % Cell Survival) was 25.6%. For the same molecule, the viability at 0.4677 µM ([3]; IMR-90, 72 h, Control, log (dose) [M] -6.33, 72 h, mean n=3 (Fig 3C), read-out: Mean % Cell Survival) was 24.8%, the viability at 0.2188 µM ([3]; IMR-90, 72 h, Control, log (dose) [M] -6.66, 72 h, mean n=3 (Fig 3C), read-out: Mean % Cell Survival) was 24.3% and the viability at 0.1 µM ([3]; IMR-90, 72 h, Control, log (dose) [M] -7, 72 h, mean n=3 (Fig 3C), read-out: Mean % Cell Survival) was 34.7%. It also gave a viability at 0.04677 µM ([3]; IMR-90, 72 h, Control, log (dose) [M] -7.33, 72 h, mean n=3 (Fig 3C), read-out: Mean % Cell Survival) of 53.1%, a viability at 0.02188 µM ([3]; IMR-90, 72 h, Control, log (dose) [M] -7.66, 72 h, mean n=3 (Fig 3C), read-out: Mean % Cell Survival) of 80.8% and a viability at 0.01 µM ([3]; IMR-90, 72 h, Control, log (dose) [M] -8, 72 h, mean n=3 (Fig 3C), read-out: Mean % Cell Survival) of 92.8%. For the same molecule, the viability at 4.677 µM ([3]; IMR-90, control, log (dose) [M] -5.33, individual replicates (Fig 3D), read-out: % Cell Survival) was 20.6%, the viability at 2.188 µM ([3]; IMR-90, control, log (dose) [M] -5.66, individual replicates (Fig 3D), read-out: % Cell Survival) was 18.9% and the viability at 1 µM ([3]; IMR-90, control, log (dose) [M] -6, individual replicates (Fig 3D), read-out: % Cell Survival) was 22.9%. The viability at 0.4677 µM ([3]; IMR-90, control, log (dose) [M] -6.33, individual replicates (Fig 3D), read-out: % Cell Survival) was 19.9%, the viability at 0.2188 µM ([3]; IMR-90, control, log (dose) [M] -6.66, individual replicates (Fig 3D), read-out: % Cell Survival) was 22.4% and the viability at 0.1 µM ([3]; IMR-90, control, log (dose) [M] -7, individual replicates (Fig 3D), read-out: % Cell Survival) was 31.3%. It also gave a viability at 0.04677 µM ([3]; IMR-90, control, log (dose) [M] -7.33, individual replicates (Fig 3D), read-out: % Cell Survival) of 54.6%, a viability at 0.02188 µM ([3]; IMR-90, control, log (dose) [M] -7.66, individual replicates (Fig 3D), read-out: % Cell Survival) of 71% and a viability at 0.01 µM ([3]; IMR-90, control, log (dose) [M] -8, individual replicates (Fig 3D), read-out: % Cell Survival) of 82.4%. For the same molecule, the IC50 ([3]; IMR-90, OIS model, non-senescent IMR90 ER:RAS, nuclei count, 72 h) was 85 nM.
